Results as given in ChEMBL document CHEMBL1156415, “Selective inhibition of porcine endogenous retrovirus replication in human cells by acyclic nucleoside phosphonates” (Antimicrob Agents Chemother, 2007).

Tests used:
[1] = test system: Porcine endogenous retrovirus; experiment: Antiviral activity against PERV infected in human 293T cells assessed as inhibition of proximal DNA synthesis after 24 hrs by RT-PCR; assay type: functional, organism-based; conditions: Porcine type-C oncovirus, HEK-293T
[2] = Cytotoxicity against human 293T cells assessed as inhibition of cell proliferation by tetrazolium dye method; assay type: cell-based, HEK-293T
[3] = Inhibition of PERV reverse transcriptase from pig PK15 cells; assay type: cell-based, Porcine endogenous retrovirus
[4] = Inhibition of PERV reverse transcriptase from Kagoshima pig KK5 cells; parameters: species or system Porcine endogenous retrovirus
[5] = Inhibition of PERV reverse transcriptase from Kagoshima pig DRK4 cells; parameters: species or system Porcine endogenous retrovirus
[6] = biological target: Human immunodeficiency virus type 1 reverse transcriptase (Human immunodeficiency virus 1, UniProt Q72547); experiment: Inhibition of HIV1 recombinant reverse transcriptase

| Structure (SMILES) | EC50 [1] [nM] | IC50 [3] [nM] | IC50 [4] [nM] | IC50 [5] [nM] | IC50 [6] [nM] | CC50 [2] [nM] |
| --- | --- | --- | --- | --- | --- | --- |
| Nc1ccn([C@@H]2CS[C@H](CO)O2)c(=O)n1 [LAMIVUDINE] | > 100000 |  |  |  |  | > 100000 |
| Cc1cn([C@H]2C[C@H](O)[C@](CO)(N=[N+]=[N-])O2)c(=O)[nH]c1=O | > 100000 |  |  |  |  | > 100000 |
| Cc1cn([C@H]2C[C@H](N=[N+]=[N-])[C@@H](COP(=O)(O)OP(=O)(O)OP(=O)(O)O)O2)c(=O)[nH]c1=O [ZIDOVUDINE TRIPHOSPHATE] |  | 59 | 19 | 20 | 54 |  |
| Cc1cn([C@H]2C[C@H](N=[N+]=[N-])[C@@H](CO)O2)c(=O)[nH]c1=O [ZIDOVUDINE] | 23 |  |  |  |  | > 10000 |
| Cc1cn([C@H]2C=C[C@@H](CO)O2)c(=O)[nH]c1=O [STAVUDINE] | 7800 |  |  |  |  | > 100000 |
| C#C[C@@]1(CO)C=C[C@H](n2cc(C)c(=O)[nH]c2=O)O1 [CENSAVUDINE] | > 100000 |  |  |  |  | > 100000 |
| Cc1ccnc2c1NC(=O)c1cccnc1N2C1CC1 [NEVIRAPINE] | > 100000 |  |  |  |  | > 100000 |
| Nc1ncnc2c1ncn2CCOCP(=O)(O)O [ADEFOVIR] | 3400 |  |  |  |  | > 100000 |

Further lines, with some results ahead:

| EC50 [1] [nM] | IC50 [3] [nM] | IC50 [4] [nM] | IC50 [5] [nM] | IC50 [6] [nM] | Structure (SMILES) | CC50 [2] [nM] |
| --- | --- | --- | --- | --- | --- | --- |
| 2800 |  |  |  |  | C[C@H](Cn1cnc2c(N)ncnc21)OCP(=O)(O)O [TENOFOVIR ANHYDROUS] | > 100000 |
| 280 |  |  |  |  | C[C@H](Cn1cnc2c(N)nc(N)nc21)OCP(=O)(O)O | > 100000 |
|  | 450 | 150 | 170 | 36 | Cc1cn([C@H]2C=C[C@@H](COP(=O)(O)OP(=O)(O)OP(=O)(O)O)O2)c(=O)[nH]c1=O [STAVUDINE TRIPHOSPHATE] |  |
| 180 |  |  |  |  | Nc1cc(OCCOCP(=O)(O)O)nc(N)n1 | > 100000 |
